We go through four compounds from PMC8874475, “Antioxidant–Anti-Inflammatory Evaluation of a Polyherbal Formula” (Pharmaceuticals, 2022).

Assay [1] relates to egg white-induced rat paw edema. Briefly: Egg white-induced rat paw edema, plethysmometry. It is filed as in vivo, Wistar rats. As to conditions: for Average Paw Size ± SD / Average Rise in Paw Volume ± SD: n = 3; for % inhibition of paw volume: oral, 1 h before egg white, formula F 250 mg/mL at 1 mL/100 g bw, ASP 100 mg/kg. How it is done: Of the many methods used in screening for the anti-inflammatory effects of various drugs, the most commonly used is the method of highlighting the inhibitory effect of edema produced in the hind paw of a rat after the injection of an inflammatory product. We used whole, fresh egg white, which, due to its inflammation being maintained for a relatively short period of time, is optimal for observation. The effect was measured by the computerized plethysmometric method, the method unanimously and currently used in testing systemic anti-inflammatory effects.
The increases in the volume of the inflamed extremity at 30, 60, 120 and 180 min were expressed as a percentages compared with the volumes measured […] injection of the irritant (Table 3). The mean values of the measured volumes for each animal and the times of measurement were calculated, as were ± standard deviations, followed by the mean values per batch (Table 4). The differences between the averages of the values obtained in the treated groups and those of the control groups (with or without treatment), were calculated for each measurement moment and the anti-inflammatory indexes were evaluated.
The anti-inflammatory effect of plant extracts was evaluated by rat paw edema assay. Wistar rats, of both sexes, weighing 150–200 g provided by the Cantacuzino Institute Biobase were used for the study. Lots of equal numbers of animals (n = 3) were established for each test sample or reference product. The animals were checked at the reception and kept for a period of 7 days for acclimatization, with observation of the clinical condition, behavior and food consumption. They were weighed at the reception and after the acclimatization period, with the selection for testing of animals with weight variations less than 10% of the initial weight. The animals were housed in appropriate cages, in small groups of the same sex. The temperature of the experimental chamber was 22 ± 2 °C and the relative humidity was 50–60%. The lighting was artificial, alternately 12-h light and 12-h dark. The animals received standardized food and water ad libitum. Twelve hours before the test, they were kept at the post and allowed access to water. The measurement of the inflamed segments volumes and their subsequent evolution was performed with the help of a U40 Basile-Italy computerized plethysmometer 7140 and the CUB dedicated software program for data acquisition and storage. The test samples and the reference substance were administered orally by intragastric gavage 1 h before the injection of the inflammatory substance (whole, fresh egg white).
The animals were injected subcutaneously with a volume of 0.1 mL of the inflammatory agent on the plantar surface of the right hind limb.
The volume of the right hind limb was measured plethysometrically prior to injection with the inflammatory agent, which represented the “0” moment of the measurements. The volume of the extremity was measured repeatedly, at 30, 60, 120 and 180 min.
In order to perform the readings, the inflamed extremity was visually marked at the level of the lateral ankle, then it was introduced into the immersion liquid of the measuring cell of the device to this level, with the performance of three measurements for each animal and for each moment, established according to the working protocol, with data storage facilitated by the plethysmometer software. The samples were administered orally by intragastric gavage, as such, at a volume of 1 mL/100 g of bw. Powder samples, after suspension with Tween 80, were administered at a concentration of 250 mg/mL, at 1 mL/100 g of bw.
The reference product (acetylsalicylic acid/aspirin) (Zentiva, Bucharest, Romania) was administered in the same way, in the form of a suspension in two doses of 100 mg/kg of bw at a volume of 1 mL/100 g of bw.

Another assay concerns paw edema. As to conditions: cited from earlier work.
The subject of the next assay is NO. As to conditions: cited from earlier work.

Structures are written as SMILES.

With `CC(=O)Oc1ccccc1C(=O)O` [ASP 100, acetylsalicylic acid], the “Average Paw Size ± SD” value in assay [1] (0 min (prior to injection)) is 1.744 ± 0.297 mL; in assay [1] (30 min) it was 2.489 ± 0.241 mL; in assay [1] (60 min), 2.318 ± 0.161 mL; in assay [1] (120 min), 2.216 ± 0.197 mL; in assay [1] (180 min), 2.211 ± 0.263 mL. The “anti-inflammatory effect over the observation period” value in assay [1] (30–180 min) is “anti-inflammatory effect that was induced early”. Moreover, the “Average Rise in Paw Volume ± SD” value in assay [1] (30 min) was 0.745 ± 0.056 mL; in assay [1] (60 min), 0.574 ± 0.136 mL; in assay [1] (120 min) it was 0.472 ± 0.1 mL; in assay [1] (180 min), 0.467 ± 0.034 mL. For the same compound, the “% inhibition of paw volume” value turned out to be 58.20% in assay [1] (60 min) and 64.25% in assay [1] (120 min). For the same compound, the “inhibitory action on paw edema” value with paw edema (third hour, 200 mg/kg, p < 0.05) is on record as 31.87%.

For the compound `CC(C)c1cc2c(c(O)c1O)[C@@]1(C(=O)O)CCCC(C)(C)[C@@H]1CC2` [Carnosic acid], the “concentration that inhibits NO completely” value in the assay with NO is reported as greater than 12.5 µg/mL.

The IC50 is the concentration at which inhibition is half-maximal. `CC(C)c1cc2c(c(O)c1O)[C@@]13CCCC(C)(C)[C@@H]1C[C@@H]2OC3=O` [carnosol]: the half-maximal inhibitory concentration (IC50) in the assay on NO (read-out: IC50 NO inhibition) was 9.4 µM.

With `O=C(/C=C/c1ccc(O)c(O)c1)O[C@H](Cc1ccc(O)c(O)c1)C(=O)O` [rosmarinic acid], in the assay on paw edema (dose of 25 mg/kg, after 6 hrs), the “reduction of paw edema” value is “over 60%”.
